The text below walks through data of article PMC7772087 (Biosensors & Bioelectronics, 2020).

The assay addresses T1, NF-κB p50 (Homo sapiens, UniProt P19838).
T1 sequence (P19838 1-968): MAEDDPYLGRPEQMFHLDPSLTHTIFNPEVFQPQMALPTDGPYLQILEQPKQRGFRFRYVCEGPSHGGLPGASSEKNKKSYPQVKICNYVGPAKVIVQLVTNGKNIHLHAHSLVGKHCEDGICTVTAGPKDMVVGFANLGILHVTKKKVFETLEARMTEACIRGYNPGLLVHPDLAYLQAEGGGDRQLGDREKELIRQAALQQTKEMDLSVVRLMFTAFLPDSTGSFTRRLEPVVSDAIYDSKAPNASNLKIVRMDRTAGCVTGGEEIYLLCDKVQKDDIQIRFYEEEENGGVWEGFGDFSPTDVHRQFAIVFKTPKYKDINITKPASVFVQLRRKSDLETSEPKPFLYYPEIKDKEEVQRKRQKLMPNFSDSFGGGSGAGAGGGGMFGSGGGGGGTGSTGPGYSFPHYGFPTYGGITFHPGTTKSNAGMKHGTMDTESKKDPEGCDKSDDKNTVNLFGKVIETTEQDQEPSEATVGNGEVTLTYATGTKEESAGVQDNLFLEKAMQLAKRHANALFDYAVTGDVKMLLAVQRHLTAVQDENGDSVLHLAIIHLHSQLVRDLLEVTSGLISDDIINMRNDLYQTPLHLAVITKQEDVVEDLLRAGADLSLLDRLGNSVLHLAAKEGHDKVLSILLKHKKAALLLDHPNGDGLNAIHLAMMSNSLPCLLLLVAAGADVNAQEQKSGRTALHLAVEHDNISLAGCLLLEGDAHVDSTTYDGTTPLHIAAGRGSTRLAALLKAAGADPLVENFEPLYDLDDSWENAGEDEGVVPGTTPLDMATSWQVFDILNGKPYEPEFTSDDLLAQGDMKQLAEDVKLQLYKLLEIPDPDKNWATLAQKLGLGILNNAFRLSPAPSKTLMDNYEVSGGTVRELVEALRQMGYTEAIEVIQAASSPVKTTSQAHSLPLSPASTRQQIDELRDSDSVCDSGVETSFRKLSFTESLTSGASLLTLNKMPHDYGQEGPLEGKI
Briefly: Electrochemiluminescence biosensor of recombinant p50 binding to dsDNA.

On to `O=C(NC1=CC(=O)[C@H]2O[C@H]2[C@H]1O)c1ccccc1O` [(−)-DHMEQ], for which the IC50 (as a rule, the concentration that gives 50% inhibition) turned out to be 0.83 nM.
